Patent publication US20250326748A1, “COMPOUNDS AND METHODS FOR MODULATING SPLICING” (REMIX THERAPEUTICS INC., priority 2022, published 2025)
Counter-ions that a name gives are not always drawn. Like-named read-outs stand apart in the source and are kept apart here.

What was measured:
Type in all cases: cell-based, human
SMN2 mRNA = assay: Splicing RT-qPCR panel, SMN2 canonical junction (CJ) mRNA; conditions: Homo sapiens, read-out: SMN2 CJ (decrease in CJ mRNA levels, IC50)
In short: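 A673 cells (DMEM, 10% FBS) or K562 cells (IMDM, 10% FBS) treated 24 h at 37 °C with an 11-point 3-fold dilution, top 10 uM, DMSO ≤0.25%. Canonical-junction mRNA quantified in lysates by RT-qPCR, normalised to GAPDH, GUSB or PPIA and to DMSO (2^−ΔΔCt), then converted to % response.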

Target C = assay: HiBiT protein abundance assay, Target C (K562 HiBiT knock-in); conditions: HiBiT knock-in cells, 24 hours
Description: Cells were maintained in IMDM with 10% FBS. Before the assay, cells were diluted with […] growth media (IMDM+1% FBS media) and were seeded in a 384-well plate at a density of 10000 cells/well (for each cell line listed in Table 6). Each compound was prepared as a 10-point 3-old serial dilution in DMSO with the top dose at a final concentration of 10 μM in the well. Unmodified K562 cells were added at the previously specified density with DMSO to serve as an assay baseline and positive control (PC) and DMSO only with the respective modified cell lines was added to the negative control (NC) columns. Final DMSO concentration was kept at or below 0.25%. Treated cell plates were placed in an incubator at 37° C. with 5% CO2 for 24 hours. After 24 hours, 25 μL of Complete HiBit Lytic reagent was added to each well at room temperature (e.g. one plate requiring 10 ml Lytic Buffer, 100 μL LgBiT Protein, 200 μL Lytic Substrate), shaken for 5 minutes at 600 RPM, then left to sit for 10 minutes for signal to stabilize before reading on a Spark Cyto plate reader (Tecan) with a 500 ms measurement time.
To determine compound effects on protein abundance of each target in Table 6, the percent response for each respective cell line was calculated at each compound concentration as follows:
For the normalized response at each concentration, a four-parameter logistical regression was fit to the data and the response was interpolated at the 50% value to determine a concentration for protein abundance at 50% (IC50) the untreated control.

MYB mRNA = assay: Splicing RT-qPCR assay, MYB canonical (CJ) and alternative (AJ) junction mRNA; conditions: Homo sapiens; for IC50: canonical junction mRNA; for AC50: alternative junction mRNA, read-out: MYB AJ (AC50, increase in AJ mRNA)
In short: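 Treatment of A673 or K562 cultures with compounds (eleven-point titration, highest final 10 uM, ≤0.25% DMSO) ran one day at 37 °C. Afterwards cells were lysed directly in the well, and cDNA synthesis coupled with qPCR measured CJ and AJ isoform levels against a reference transcript.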

[1] = qPCR panel, read-out: MYB CJ (decrease in CJ mRNA levels, IC50)
[2] = RT-qPCR, A673 or K562 cells, 24 hours treatment
[3] = RT-qPCR, A673 or K562 cells, 24 hours treatment, read-out: MYB CJ (IC50, decrease in CJ mRNA)

IC50 (SMN2 mRNA) [nM] | IC50 (Target C) [nM] | IC50 (MYB mRNA; [1]) [nM] | IC50 (MYB mRNA; [3]) [nM] | SMILES | AC50 (MYB mRNA; [2]) [nM]
> 10000 | 1000 to 10000 | > 10000 | > 10000 | Cn1cc2cc(-c3cnc4nc(N5CCC(NC(C)(C)C)C5)ccc4c3)c(O)cc2n1 (stereo not shown) [Compound 133, 5-{7-[3-(tert-butylamino)pyrrolidin-1-yl]-1,8-naphthyridin-3-yl}-2-methylindazol-6-ol] | > 10000
< 100 | 100 to 1000 | 100 to 1000 | 100 to 1000 | Cn1cc2cc(-c3ccc4cc(N5CCC(NC(C)(C)C)C5)cnc4n3)c(O)cc2n1 (stereo not shown) [Compound 134, 5-{6-[3-(tert-butylamino)pyrrolidin-1-yl]-1,8-naphthyridin-2-yl}-2-methylindazol-6-ol hydrochloride] | 100 to 1000
< 100 | < 100 | < 100 | < 100 | Cn1cc2cc(-c3ccc4cc(N5CC[C@@H](NCC6CC6)C5)cnc4n3)c(O)c(F)c2n1 [Compound 135, 5-{6-[(3R)-3-[(cyclopropylmethyl)amino]330pyrrolidine-1-yl]-1,8-naphthyridin-2-yl}-7-fluoro-2-methylindazol-6-ol] | < 100
< 100 | 100 to 1000 | 100 to 1000 | 100 to 1000 | Cn1cc2cc(-c3ccc4cc(N5CC[C@H](NCC6CC6)C5)cnc4n3)c(O)c(F)c2n1 [Compound 136, 5-{6-[(3S)-3-[(cyclopropylmethyl)amino]326pyrrolidine-1-yl]-1,8-naphthyridin-2-yl}-7-fluoro-2-methylindazol-6-ol] | < 100
< 100 | 100 to 1000 | < 100 | < 100 | Cc1c(O)c(-c2ccc3cc(N4CCNCC4)cnc3n2)cc2cn(C)nc12 [Compound 137, 2,7-dimethyl-5-[6-(piperazin-1-yl)-1,8-naphthyridin-2-yl]indazol-6-ol] | < 100
< 100 | 1000 to 10000 | 100 to 1000 | 100 to 1000 | Cc1c(O)c(-c2ccc3cc(N4CCC(N(C)C)CC4)cnc3n2)cc2cn(C)nc12 [Compound 138, 5-{6-[4-(dimethylamino)piperidin-1-yl]-1,8-naphthyridin-2-yl}-2,7-dimethylindazol-6-ol] | 100 to 1000
< 100 | 100 to 1000 | < 100 | < 100 | CNC1CCN(c2cnc3nc(-c4cc5cn(C)nc5c(C)c4O)cc(Cl)c3c2)C1 (stereo not shown) [Compound 142, 5-{4-chloro-6-[3-(methylamino)351pyrrolidine-1-yl]-1,8-naphthyridin-2-yl}-2,7-dimethylindazol-6-ol] | < 100
< 100 | 100 to 1000 | < 100 | < 100 | Cc1c(O)c(-c2cc(Cl)c3cc(N4CCC(N(C)C)C4)cnc3n2)cc2cn(C)nc12 (stereo not shown) [Compound 143, 5-{4-chloro-6-[3-(dimethylamino)357pyrrolidine-1-yl]-1,8-naphthyridin-2-yl}-2,7-dimethylindazol-6-ol] | < 100
< 100 | 1000 to 10000 | 100 to 1000 | 100 to 1000 | Cc1c(O)c(-c2cc(C3CC3)c3cc(N4CCNCC4)cnc3n2)cc2cn(C)nc12 [Compound 144, 5-(4-cyclopropyl-6-(piperazin-1-yl)-1,8-naphthyridin-2-yl)-2,7-dimethyl-2H-indazol-6-ol bis(2,2,2-trifluoroacetate)] | 100 to 1000
< 100 | 100 to 1000 | 100 to 1000 | 100 to 1000 | Cc1c(O)c(-c2cc(Cl)c3cc(NC4CCNC4)cnc3n2)cc2cn(C)nc12 (stereo not shown) [Compound 146, 5-[4-chloro-6-(359pyrrolidine-3-ylamino)-1,8-naphthyridin-2-yl]-2,7-dimethylindazol-6-ol] | < 100
< 100 | 1000 to 10000 | 100 to 1000 | 100 to 1000 | Cc1c(O)c(-c2cc(Cl)c3cc(N4CCNC(C)C4)cnc3n2)cc2cn(C)nc12 (stereo not shown) [Compound 147] | 100 to 1000
< 100 | 100 to 1000 | < 100 | < 100 | Cc1c(O)c(-c2cc(Cl)c3cc(N4C[C@@H](C)N[C@@H](C)C4)cnc3n2)cc2cn(C)nc12 [Compound 149] | < 100
1000 to 10000 | > 10000 | > 10000 | > 10000 | CNC(=O)c1cc(-c2cc3cn(C)nc3c(C)c2O)nc2ncc(N3CCNCC3)cc12 [Compound 150, 2-(6-hydroxy-2,7-dimethylindazol-5-yl)-N-methyl-6-(piperazin-1-yl)-1,8-naphthyridine-4-carboxamide] | > 10000
< 100 | 100 to 1000 | < 100 | < 100 | Cc1cc(-c2cc3cn(C)nc3c(C)c2O)nc2ncc(N3CCNCC3)cc12 [Compound 151, 2,7-dimethyl-5-[4-methyl-6-(piperazin-1-yl)-1,8-naphthyridin-2-yl]indazol-6-ol] | < 100
< 100 | 1000 to 10000 | 100 to 1000 | 100 to 1000 | Cc1cn2cc(-c3cc(Cl)c4cc(N5CCNCC5)cnc4n3)cc(F)c2n1 [Compound 153, 4-chloro-2-{8-fluoro-2-methylimidazo[1,2-a]pyridin-6-yl}-6-(piperazin-1-yl)-1,8-naphthyridine] | < 100
< 100 | < 100 | < 100 | < 100 | CN[C@H]1CCN(c2cnc3nc(-c4cc5cn(C)nc5c(F)c4O)cc(Cl)c3c2)C1 [Compound 272] | < 100
< 100 | 100 to 1000 | < 100 | < 100 | Cn1cc2cc(-c3cc(Cl)c4cc(N5CCNC6(CC6)C5)cnc4n3)c(O)c(F)c2n1 [Compound 274] | < 100
< 100 | 1000 to 10000 | < 100 | < 100 | CN(c1cnc2nc(-c3cc4cn(C)nc4c(F)c3O)cc(Cl)c2c1)[C@H]1CCNC1 [Compound 275] | < 100
< 100 | 100 to 1000 | < 100 | < 100 | CN(c1cnc2nc(-c3cc4cn(C)nc4c(F)c3O)cc(Cl)c2c1)[C@@H]1CCNC1 [Compound 276] | < 100
< 100 | 1000 to 10000 | < 100 | < 100 | Cc1c(O)c(-c2ccc3c(Cl)c(N4CCNCC4)cnc3n2)cc2cn(C)nc12 [Compound 278, 5-[5-chloro-6-(piperazin-1-yl)-1,8-naphthyridin-2-yl]-2,7-dimethylindazol-6-ol] | < 100
< 100 | 100 to 1000 | < 100 | < 100 | C[C@@H]1CN(c2cnc3nc(-c4cc5cn(C)nc5c(F)c4O)cc(Cl)c3c2)C[C@H](C)N1 [Compound 279] | < 100
< 100 | < 100 | < 100 | < 100 | C[C@H]1CN(c2cnc3nc(-c4cc5cn(C)nc5c(F)c4O)cc(Cl)c3c2)C[C@H](C)N1 [Compound 280] | < 100
< 100 | 100 to 1000 | < 100 | < 100 | C[C@@H]1CN(c2cnc3nc(-c4cc5cn(C)nc5c(F)c4O)cc(Cl)c3c2)C[C@@H](C)N1 [Compound 281] | < 100
